Measured values: PubChem BioAssay AID179 (DTP/NCI, 2004)
Calls of active or inactive are those of the source.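 The calls were made as follows: active = compounds giving half or more protection of infected cells from virus-caused growth loss, again on retest; inactive = the rest.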 Where a SMILES comes first, the peptide text is derived from it. The star is where a group is joined. Cbz = O=C(OCc1ccccc1)*; NHNH2 = NN*

Tested on: CEM cells HIV-1 protection, formazan growth assay
Assay: NCI AIDS Antiviral Assay
Details: for IC50: measured here: growth of uninfected CEM cells
Outline: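 Screen of anti-HIV-1 activity in human CEM cells using a formazan-based growth measurement at five drug concentrations. Hits with 50% or greater protection were repeated, and confirmation required reproducible complete protection.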

| SMILES | EC50 | IC50 | outcome |
| --- | --- | --- | --- |
| Clc1ccc(C2N3CCCCC3[C@@H]3c4[nH]c5ccccc5c4CCN23)cc1 (some centres not stated) | > 19.1 µM | > 19.1 µM | – |
| C(=C\c1nc2ccccc2s1)/c1ccc2c(c1)OCO2 | > 6.76 µM | > 6.76 µM | – |
| CCCCCCCCCCCCCCCCSS(C)(=O)=O | > 13.8 µM | 6.92 µM | – |
| N=C(N)SCCc1cn2ccccc2n1 | > 851 µM | 42.7 µM | – |
| O=C1c2ccccc2-c2nnsc21 | > 191 µM | 141 µM | – |
| Nn1c(=O)n(Cc2ccccc2)n(-c2ccccc2)c1=O | – | – | inactive |
| Cc1cc(=O)[nH]c(NNC(C#N)c2ccc(O)cc2)n1 (configuration not stated) | > 182 µM | > 182 µM | – |
| Cc1ccc(C2CC(=O)CC(c3ccc(C)cc3)C23C(=O)NC(=O)NC3=O)cc1 (configuration not stated) | > 100 µM | 64.6 µM | – |
| O=C(OCCc1ccccc1)c1ccc2c(O)c(O)ccc2c1 | > 8.32 µM | 6.03 µM | – |
| CN1N=C(c2ccccc2)c2cc(Cl)ccc2N=C1N/N=C/c1ccc(N(C)C)cc1 | > 200 µM | > 200 µM | – |
| Cc1cn(COCCS(=O)c2ccccc2)c(=O)[nH]c1=O (configuration not stated) | > 200 µM | > 200 µM | – |
| O=[N+]([O-])c1ccccc1S(=O)(=O)N1CCCc2cc(Cl)ccc21 | > 200 µM | 16.6 µM | – |
| CCN(CC)c1oc(N(CC)CC)c(C(=O)Nc2ccccn2)c(=O)c1C(C)=O | > 631 µM | 251 µM | – |
| CC1(C)CNC[C@@](C)(OCc2ccccc2)C(=O)[N-]C(C)(C)CNC[C@@](C)(OCc2ccccc2)C(=O)[N-]1.[Ni+2] | > 200 µM | 105 µM | – |
| CN(C)/C=N/NC(=O)/C(C#N)=C/N(C)C | > 200 µM | > 200 µM | – |
| CCOC(=O)CCC(NC(=O)OCc1ccccc1)C(=O)NC(CCC(=O)OCC)C(=O)NN (configuration not stated) (Cbz-Glu(OEt)-Glu(OEt)-NHNH2; configuration not given here) | > 200 µM | > 200 µM | – |
| CN=c1ncn(C)c2ncn(C/C=C(\C)CC[C@@]3(C)C(C)CCC4(O)C3CCCC4(C)C)c12 (some centres not stated) | – | – | inactive |
| COc1ccc(NS(=O)c2ccccc2OC)cc1 (configuration not stated) | > 200 µM | 15.1 µM | – |
| CCCCCCCCCCCCCC/C=C\C(CC(=O)O)C(=O)O (configuration not stated) | > 15.1 µM | > 15.1 µM | – |
| NS(=O)(=O)c1nnc(NC(=O)c2ccccc2)s1 | > 200 µM | > 200 µM | – |
| Cc1ccc(-c2nc3cc(N4CCN(C)CC4)c(F)cc3[nH]2)cc1 | > 200 µM | 26.3 µM | – |
| Nc1nn2c(=O)c3ccccc3nc2s1 | > 200 µM | 89.1 µM | – |

| SMILES | EC50 | IC50 | outcome |
| --- | --- | --- | --- |
| O=C(NN=C1CCCCC1)NN=C1CCCCC1 | > 100 µM | > 100 µM | – |
| CCOC1CSc2ccccc2C(c2ccccc2)=N1 (configuration not stated) | 195 µM | > 200 µM | – |
| CN(C)CCOC1(CC2CCCCC2)CCC(C(C)(C)C)CC1 (configuration not stated) | > 200 µM | 8.13 µM | – |
| CC(C)(CCCCC(C)(C)NC(=O)Nc1ccc(Cl)c(Cl)c1)NC(=O)Nc1ccc(Cl)c(Cl)c1 | > 200 µM | 8.91 µM | – |
| CC(C)(C)C(C)(C)SSC(C)(C)C(C)(C)C | > 200 µM | > 200 µM | – |
| O=C(O)c1cc(O)c(O)c(O)c1 | > 200 µM | 11 µM | – |
| O=C1c2cccc3cccc(c23)C(=O)N1CCCN1C(=O)c2cccc3cccc(c23)C1=O | > 200 µM | 110 µM | – |
| CCOc1ccccc1NC(=O)CCC(=O)NN | > 145 µM | > 145 µM | – |
| COc1ccc2c3c(c(C(=O)O)oc13)CCC2 | – | – | inactive |
| O=C1CC2(c3ccccc3)ON=C(c3ccccc3)N2c2ccccc2N1 (configuration not stated) | > 200 µM | 85.1 µM | – |
| C/C(=N/Nc1ccc([N+](=O)[O-])cc1[N+](=O)[O-])C(CC(C(=O)Nc1ccccc1C)/C(C)=N\Nc1ccc([N+](=O)[O-])cc1[N+](=O)[O-])C(=O)Nc1ccccc1C (configuration not stated) | > 9.55 µM | > 9.55 µM | – |
| Cc1cc(C2(c3ccc(O)c(C)c3)OS(=O)(=O)c3ccccc32)ccc1O | – | – | inactive |
| COC(=O)C(=O)c1c2ccccc2n2ccc3c4ccccc4[nH]c3c12 | > 200 µM | 83.2 µM | – |
| COc1ccc(/C=C(\C#N)c2ccccc2[N+](=O)[O-])cc1 | > 200 µM | 12.6 µM | – |
| CO/C=C(/C#N)S(=O)(=O)/C(C#N)=C/OC | > 200 µM | > 200 µM | – |
| Cc1cc(NC(=O)c2ccc(NC(=O)c3ccc(N)cc3)cc2)ccc1N=Nc1ccc2c(O)c(N=Nc3ccc(S(=O)(=O)O)cc3C)c(S(=O)(=O)O)cc2c1 | 6.17 µM | > 100 µM | – |
| CCOc1ncnc2c1ncn2C1OC(CO)CC1F (configuration not stated) | > 178 µM | > 178 µM | – |
| O=[N+]([O-])c1ccccc1S(=O)(=O)Oc1ccccc1 | > 77.6 µM | 47.9 µM | – |
| CCOC(=O)/C(C=Nc1c(C)n(C)n(-c2ccccc2)c1=O)=C(/O)c1ccccc1 | > 200 µM | > 200 µM | – |
| CCOC(=O)C1C(=O)CC(C)(O)C(C(=O)OCC)C1c1ccc(OC)cc1 (configuration not stated) | > 200 µM | > 200 µM | – |
| CC[N+]1(CC)CC[N+]2(CCCC(C)CC2)CC1 (configuration not stated) | – | – | inactive |
| N#Cc1c(-c2ccccc2)/c(=C\O)c(=O)n2c1nc1ccccc12 | > 200 µM | 32.4 µM | – |

| SMILES | EC50 | IC50 | outcome |
| --- | --- | --- | --- |
| CCCCN(CCCC)C(=O)C(=O)CC(=O)/C=C/c1ccccc1 | > 288 µM | > 288 µM | – |
| O=C1CCC2(c3ccc(Cl)cc3)Nc3cc([N+](=O)[O-])ccc3N12 (configuration not stated) | > 21.9 µM | > 21.9 µM | – |
| CC1CCCC(C(O)CC2CC(=O)NC(=O)C2)C1O (configuration not stated) | > 200 µM | > 200 µM | – |
| CC(C)CCCC(C)[C@H]1CC[C@@H]2[C@H]3CC[C@H]4C[C@@H](CCC=C(c5cc(Cl)c(OCc6ccc(C(=O)O)cc6)c(C(=O)O)c5)c5cc(Cl)c(OCc6ccc(C(=O)O)cc6)c(C(=O)O)c5)CC[C@]4(C)[C@@H]3CC[C@]12C (some centres not stated) | 4.17 µM | 112 µM | – |
| CCc1cc2c(O)c(c1)Cc1cc(CC)cc(c1O)Cc1cc(CC)cc(c1O)Cc1cc(CC)cc(c1O)Cc1cc(CC)cc(c1O)Cc1cc(CC)cc(c1O)Cc1cc(CC)cc(c1O)C2 | > 10 µM | > 10 µM | – |
| CN(C)P(CCPc1ccccc1)N(C)C (configuration not stated) | > 977 µM | > 977 µM | – |
| CC(C)C1OC(=O)/C=C/C=C/C=C/C=C/C=C/CC(O)CC(O)CC(O)CC(O)CC(O)CC(O)CC(O)CC(O)/C=C/C1C (configuration not stated) | > 200 µM | > 200 µM | – |
| C=CCNC(=S)N1c2ccccc2NC(=O)CC1C (configuration not stated) | > 661 µM | > 661 µM | – |
| CC[N+](CC)=c1cc2oc3cc(N(C)C)ccc3nc-2cc1C | > 200 µM | 16.2 µM | – |
| C=C1C(=O)C23OC2C1CCC(=O)C1(C)CC[C@H](OC(C)=O)C(C)(C)[C@H]1CC3=O (some centres not stated) | > 174 µM | 2.29 µM | – |
| N#Cc1c(CC(=O)O)cc(=O)n2c1[nH]c1ccccc12 | > 933 µM | 316 µM | – |
| NC1=C(c2nc(-c3ccccc3)cs2)C(c2ccco2)c2c(c3ccccc3oc2=O)O1 (configuration not stated) | > 200 µM | 93.3 µM | – |
| [N-]=[N+]=NC1(Cc2ccccc2)C(=O)Nc2ccccc2C1=O (configuration not stated) | > 200 µM | 105 µM | – |
| CC(C)C(/C=C/c1ccc(Cl)cc1)=N\NC(=O)N/N=C(/C=C/c1ccc(Cl)cc1)C(C)C | > 100 µM | > 100 µM | – |
| COC(=O)C1=C(/C=C/C(C)=O)NC(C)=C(C(=O)OC(C)C)C1c1ccccc1Cl (configuration not stated) | > 200 µM | 0.575 µM | – |
| CC1(C)OC(=O)CC12CCN(Cc1ccccc1)CC2 | > 200 µM | 195 µM | – |
| Cc1cccc2c1C(=O)[C@](C)([C@]1(C)Nc3cccc(C)c3C1=O)N2 | > 200 µM | 17.4 µM | – |
| CC(=O)C1CC2(C(=O)C1=O)c1ccccc1-c1ccccc12 (configuration not stated) | – | – | inactive |
| Cc1cc[n+](CC(=O)CC([O-])(C(F)(F)F)C(F)(F)F)cc1 | > 200 µM | > 200 µM | – |
| C=CCC12CC(O)C(O)CC1(O)OC(c1cc(OC)c(OC)c(OC)c1)C2C (configuration not stated) | > 200 µM | > 200 µM | – |
| CCCCCn1cnc2c1S(=O)(=O)N(C)C(NC(=O)c1ccccc1)=N2 | > 200 µM | > 200 µM | – |
| O=c1ccc(=O)n(-c2ccc(Br)cc2)[nH]1 | > 26.9 µM | > 26.9 µM | – |

| SMILES | EC50 | IC50 | outcome |
| --- | --- | --- | --- |
| CN(C)CCNS(=O)(=O)c1ccc(N)cc1 | > 200 µM | > 200 µM | – |
| CCOC(=O)N[C@@H]1C(CC(=O)OC)O[C@H]2OC(C)(C)O[C@H]21 (some centres not stated) | > 832 µM | > 832 µM | – |
| CCN(CC)CCN1C=CC(C)C(C(=O)O)C1C(N)=O (configuration not stated) | > 100 µM | > 100 µM | – |
| COc1ccccc1C1C2=C(COC2=O)OC(C)(C)Oc2cc3c(cc21)OCO3 (configuration not stated) | – | – | inactive |
| O=C(OC/C=C1C=C(OC(=O)c2ccccc2)/C(=N/N(C(=O)c2ccccc2)c2ccccc2)O\1)c1ccccc1 | > 200 µM | 11 µM | – |
| Cn1c(NS(=O)(=O)c2ccccc2)nc2ccccc21 | > 200 µM | > 200 µM | – |
| Cn1c2c(c3ccccc31)CCN(CCCN1CCN(c3cccc(Cl)c3)CC1)C2=O | > 16.6 µM | > 16.6 µM | – |
| Cc1ccc(S(=O)(=O)N2c3ccccc3[C@H]3CCc4c([nH]c5ccccc45)[C@H]32)cc1 | 35.5 µM | > 100 µM | – |
| O=C(O)c1nc2cc(Cl)ccc2[nH]c1=O | > 200 µM | > 200 µM | – |
| Cc1nc2ccccc2c(N)c1-c1cc(C)c2c(C)nc3ccccc3c2n1 | > 200 µM | 3.89 µM | – |
| Cc1[nH]c(-c2ccccc2)c(O)c1C(=O)OC1CC(C)CCC1C(C)C (configuration not stated) | > 200 µM | 23.4 µM | – |
| CC1=C(C(=O)Nc2ccc([N+](=O)[O-])cc2)C(c2ccc3c(c2)OCO3)C(C(=O)Nc2ccc([N+](=O)[O-])cc2)=C(C)N1 | > 6.76 µM | > 6.76 µM | – |
| CCSC1=C(C#N)C2(CCCCC2)C2=C(CC(C)(C)CC2=O)N1 | > 200 µM | > 200 µM | – |
| O=C1CCC[C@H]2O[C@@H](COC(=O)c3ccccc3)C[C@H]2O1 | > 200 µM | > 200 µM | – |
| CC(=O)OC12c3ccccc3C(c3ccccc31)C1C(=O)N(c3ccccn3)C(=O)C12 (configuration not stated) | > 200 µM | > 200 µM | – |
| CCOC(=O)C(=O)/C(=C/n1c(=S)[nH]c2ccc([N+](=O)[O-])cc21)C(=O)OCC | > 200 µM | 77.6 µM | – |
| COC(=O)CN1CCSC1=NC#N | – | – | inactive |
| C1=C(c2ccccc2)NC2=N[C@H]3CCCC[C@@H]3N2C1c1ccccc1 (some centres not stated) | > 126 µM | 8.13 µM | – |
| O=c1oc2cc(O)ccc2c(O)c1C(c1ccccc1)c1c(O)c2ccc(O)cc2oc1=O | > 200 µM | 178 µM | – |
